Experiments:
[1] = target: IRAK1 (Homo sapiens, UniProt P51617); assay: Adapta Universal Kinase Assay (ThermoFisher) against IRAK1; format: biochemical; details: Histone H3 (1-20) peptide substrate, 60 minutes at room temperature
Method: To measure the IC50 values of the compounds herein against IRAK1, the Adapta Universal Kinase Assay (ThermoFisher) was used. Briefly, 100 nL of different concentrations of the compounds in 100% DMSO were added to each well of a 384-well plate (Corning Cat. #4512). 2.4 μL of 30 mM HEPES, 2.5 μL of 4× ATP solution (in water), and 5 μL of 2× IRAK1/Histone H3 (1-20) peptide mixture (prepared in 50 mM HEPES pH 7.5, 0.01% BRIJ-35, 10 mM MgCl2, 1 mM EGTA) were added to each well. The plate was shaken for 30 seconds and centrifuged for 1 minute at 1000×g. The plate was then incubated at room temperature for 60 minutes. 5 μL of Detection Mix was added to each well. The plate was shaken for 30 seconds and centrifuged for 1 minute at 1000×g. The plate was then incubated at room temperature for 60 minutes. The plate was subsequently read on a fluorescence plate reader, and the emissions ratio was calculated to determine the ratio of ATP to ADP. Emissions Ratio=AF647 Emission (665 nm)/Europium Emission (615 nm).

[2] = target: T1, IRAK4 (Homo sapiens, UniProt Q9NWZ3); assay: Z'-LYTE assay (ThermoFisher) against IRAK4; format: biochemical; details: Ser/Thr 07 substrate, 60 minutes at room temperature
T1 sequence (Q9NWZ3 1-460): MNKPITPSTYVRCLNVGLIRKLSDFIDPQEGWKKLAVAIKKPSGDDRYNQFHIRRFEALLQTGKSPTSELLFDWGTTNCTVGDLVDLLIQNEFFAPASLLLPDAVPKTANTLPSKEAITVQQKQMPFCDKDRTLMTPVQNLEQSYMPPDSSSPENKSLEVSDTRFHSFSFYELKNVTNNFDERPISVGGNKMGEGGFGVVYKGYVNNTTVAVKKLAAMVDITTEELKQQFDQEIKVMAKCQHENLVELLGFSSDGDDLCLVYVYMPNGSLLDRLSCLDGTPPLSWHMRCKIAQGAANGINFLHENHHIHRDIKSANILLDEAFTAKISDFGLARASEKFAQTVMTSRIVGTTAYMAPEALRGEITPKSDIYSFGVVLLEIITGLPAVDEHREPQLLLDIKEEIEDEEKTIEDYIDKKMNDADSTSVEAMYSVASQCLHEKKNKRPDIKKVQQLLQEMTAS
Method: To measure the IC50 values of compounds herein against IRAK4, a Z′-LYTE assay (ThermoFisher) was used. Briefly, 2.5 μL of different concentrations of the compounds in 1% DMSO were added to 2.4 μL kinase buffer (50 mM HEPES pH 7.5, 0.01% BRIJ-35, 10 mM MgCl2, 1 mM EGTA) in each well of a 384-well plate (Corning Cat. #3676). 5 μL of 2× IRAK4/Ser/Thr 07 mixture (prepared in 50 mM HEPES pH 7.5, 0.01% BRIJ-35, 10 mM MnCl2, 2 mM DTT, and 0.02% NaN3) and 2.5 μL of 4× ATP solution (4× ATP, 50 mM HEPES, pH 7.5, 0.01% BRIJ-35, 10 mM MgCl2, 1 mM EGTA) were added to each well. The plate was shaken for 30 seconds, and then incubated at room temperature for 60 minutes. 5 μL of a 1:100000 dilution of Development Reagent A was added to each well. The plate was shaken for 30 seconds and incubated for 60 minutes at room temperature. The plate was subsequently read on a fluorescence plate reader, and the emissions ratio was calculated to determine the ratio of Ser/Thr 07 phosphorylated by the reaction. Emissions Ratio=Coumarin Emission (443 nm)/Flourescein Emission (520 nm).

Sequence of IRAK1 (P51617 whole entry): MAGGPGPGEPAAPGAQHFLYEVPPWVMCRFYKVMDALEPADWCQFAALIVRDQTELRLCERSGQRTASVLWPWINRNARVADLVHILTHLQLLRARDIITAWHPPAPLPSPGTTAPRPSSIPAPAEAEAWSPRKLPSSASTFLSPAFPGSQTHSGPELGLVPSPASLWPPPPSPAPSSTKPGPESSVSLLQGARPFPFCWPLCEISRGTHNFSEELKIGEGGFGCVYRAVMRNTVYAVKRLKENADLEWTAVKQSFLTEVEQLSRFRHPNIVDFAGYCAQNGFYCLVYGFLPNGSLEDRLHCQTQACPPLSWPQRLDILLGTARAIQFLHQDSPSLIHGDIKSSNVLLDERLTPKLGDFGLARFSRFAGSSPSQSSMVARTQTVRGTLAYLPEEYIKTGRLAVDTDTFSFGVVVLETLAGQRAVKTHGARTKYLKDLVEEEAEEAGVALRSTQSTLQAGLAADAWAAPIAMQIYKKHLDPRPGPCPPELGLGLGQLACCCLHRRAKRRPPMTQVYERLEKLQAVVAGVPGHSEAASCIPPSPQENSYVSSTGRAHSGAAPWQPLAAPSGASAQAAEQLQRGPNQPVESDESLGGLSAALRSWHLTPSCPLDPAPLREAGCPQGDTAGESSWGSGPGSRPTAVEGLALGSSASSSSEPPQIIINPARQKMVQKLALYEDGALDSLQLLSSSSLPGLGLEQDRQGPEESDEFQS

| IC50 [1] [nM] | IC50 [2] [nM] | Compound |
| --- | --- | --- |
| 9.93 | > 10000 | C=CC(=O)N1CC(c2nc(-c3ccc(NC(=O)c4cccc(-c5[nH]ncc5Cl)n4)c(F)c3)no2)CC(F)(F)C1 (stereo not drawn) [Compound 092, N-(4-(5-(1-acryloyl-5,5-difluoropiperidin-3-yl)-1,2,4-oxadiazol-3-yl)-2-fluorophenyl)-6-(4-chloro-1H-pyrazol-5-yl)picolinamide] |
| 8.3 | > 10000 | C=CC(=O)N1CC(c2nc(-c3ccc(NC(=O)c4cccc(-c5[nH]ncc5C)n4)c(F)c3)no2)CC(F)(F)C1 (stereo not drawn) [Compound 093, N-(4-(5-(1-acryloyl-5,5-difluoropiperidin-3-yl)-1,2,4-oxadiazol-3-yl)-2-fluorophenyl)-6-(4-methyl-1H-pyrazol-5-yl)picolinamide] |
| 45.9 | > 10000 | C=CC(=O)N[C@@H]1CNC[C@H](c2nc(-c3ccc(NC(=O)c4cccc(-c5ccn[nH]5)n4)c(F)c3)no2)C1 [Compound 098, N-(4-(5-((3R,5S)-5-acrylamidopiperidin-3-yl)-1,2,4-oxadiazol-3-yl)-2-fluorophenyl)-6-(1H-pyrazol-5-yl)picolinamide] |

From patent publication US20260345574A1, “POTENT AND SELECTIVE IRREVERSIBLE INHIBITORS OF IRAK1” (Dana-Farber Cancer Institute, Inc., priority 2022, published 2026)
